Laboratory results: US4749704A, “Cyclopenta[d]pyrimidine derivatives and use as antidepressants” (Sankyo Company Limited, priority 1985, dated 1988)

Columns and labels:
reserpine-induced ptosis = assay: Test for Anti-reserpine Activity (inhibition of reserpine-induced ptosis); type: in vivo, male mice of the ddy strain; conditions: mice, oral, reserpine 2 mg/kg s.c., ptosis at 90, 120 and 180 min
Experimental: The test animals used were male mice of the ddy strain, each weighing 23-25 g. Each compound was tested on a group of five such mice. Each test compound was employed in the form of a solution or suspension in a physiological saline solution containing 0.3% w/v carboxymethylcellulose. The test employed was a partial modification of the method of Rubin et al. [J. Pharmacol. Exptl. Therap., 120, 125 (1957)].
2 mg/kg of reserpine were injected subcutaneously into each mouse and, immediately after the injection, the solution or suspension of the test compound was given orally in a dose of 5 mg/kg, 10 mg/kg or 25 mg/kg, as shown in the following Table. The animals were observed 90 minutes, 120 minutes and 180 minutes after administration to evaluate the inhibition of ptosis. At each observation, each mouse was assigned from 0 to 3 points corresponding to the degree of ptosis, as follows:
0 points: eyes completely open;
1 point: eyes about one third closed;
2 points: eyes about two thirds closed;
3 points: eyes completely closed.
For each mouse, the number of points from all three observations were added together, and the percentage inhibition of reserpine-induced ptosis (Ri) was calculated from the following formula:
Po =total number of points from three observations of an animal to which reserpine alone was administered; and
Pt =total number of points from three observations of an animal to which reserpine and the test compound were administered.

[1] = test system: male rats of the F-344 strain; assay: Acute Toxicity Test (single oral dose, 7 days observation); type: in vivo, rat (F-344 strain)
Experimental: The test animals used were male rats of the F-344 strain, each weighing from 150 to 170 g. One group of animals was fed normally, whilst another group was starved for 24 hours before administration of the test compound. To each animal was administered orally a single dose of the test compound in the amount shown in the following Table; the animals were then placed under observation for 7 days after administration. The results are reported in Table as "Mortality", where the numerator indicates the number of deaths in the observation period and the denominator indicates the number of animals tested with the particular test compound at the particular dose.

monoamine oxidase = assay: Toxicity to the Liver (inhibition of monoamine oxidase in the rat liver); type: biochemical; conditions: estimated from inhibition of monoamine oxidase in the rat liver
[2] = background statement; cited from earlier work

Structure (SMILES)	Ri % (percentage inhibition of reserpine-induced ptosis) (reserpine-induced ptosis; dose 25 mg (25 mg/kg)) [%]	Mortality (deaths/animals tested) ([1]; fed rats, single oral dose 200 mg)	Mortality (deaths/animals tested) ([1]; starved (24 hours) rats, single oral dose 200 mg)	Ri % (percentage inhibition of reserpine-induced ptosis) (reserpine-induced ptosis; dose 5 mg (5 mg/kg)) [%]	Ri % (percentage inhibition of reserpine-induced ptosis) (reserpine-induced ptosis; dose 10 mg (10 mg/kg)) [%]	toxicity to the liver relative to the prior art compound (Compound A) (monoamine oxidase)	Mortality (deaths/animals tested) ([1]; fed rats, single oral dose 800 mg)	Mortality (deaths/animals tested) ([1]; starved (24 hours) rats, single oral dose 1500 mg)	side-effect activities [2]
N#Cc1ccc(Nc2ncnc3c2CCC3)cc1 [Compound A, 4-(4-cyanoanilino)-6,7-dihydro-5H-cyclopenta[d]pyrimidine, reference compound]	85.0	1/5	3/5						
N#Cc1ccc(Nc2ncnc3c2CCC3O)cc1 (stereo not shown) [Compound No. 31, 4-(4-Cyanoanilino)-6,7-dihydro-7-hydroxy-5H-cyclopenta[d]pyrimidine]	85.7			50	71.4	about half that of the prior art compound	0/5	0/5	
CN(C)CCCN1c2ccccc2CCc2ccccc21 [Imipramine]									exhibits antihistaminic and anticholinergic activities
